According to ChEMBL document CHEMBL1201862, “PubChem BioAssay data set” (2004):
The source made the active and inactive calls.

Columns and labels:
Streptokinase A = biological target: T1, Streptokinase A (Streptococcus pyogenes serotype M1, UniProt P10520); assay: viability-normalized secreted streptokinase activity reduction – plasminogen activation absorbance, OD405, dose response (AID 1914); type: functional, Streptococcus pyogenes M1 GAS;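 further: secreted streptokinase activity via plasminogen activation per viability signal from cell pellet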
T1 sequence (P10520 whole entry): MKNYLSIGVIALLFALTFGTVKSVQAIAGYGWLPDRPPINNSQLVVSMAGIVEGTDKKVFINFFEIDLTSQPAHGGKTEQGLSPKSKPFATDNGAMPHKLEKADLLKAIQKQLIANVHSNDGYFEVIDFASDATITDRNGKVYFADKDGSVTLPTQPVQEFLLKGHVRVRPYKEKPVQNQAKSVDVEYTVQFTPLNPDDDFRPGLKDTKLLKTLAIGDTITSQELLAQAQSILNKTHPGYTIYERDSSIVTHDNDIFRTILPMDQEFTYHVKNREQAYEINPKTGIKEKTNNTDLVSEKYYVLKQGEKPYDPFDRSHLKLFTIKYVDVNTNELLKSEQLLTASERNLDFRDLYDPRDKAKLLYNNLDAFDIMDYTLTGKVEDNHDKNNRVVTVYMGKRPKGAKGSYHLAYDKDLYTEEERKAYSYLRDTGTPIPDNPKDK

[1] = tested on: Streptococcus sp. 'group A'; assay: Streptococcus pyogenes SK(-)GAS viability under kanamycin – luminescence, BacTiterGlo, confirmation, counter-screen for streptokinase expression inhibitor project, dose response (AID 1900); type: functional, organism-based
Streptococcus = assay: GAS UMAA2166 growth inhibition – luminescence, BacTiterGlo, counter-screen for streptokinase expression inhibitor project, dose response (AID 1915); type: functional, organism-based;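 further: potency for reduction of bacterial viability or growth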
[2] = biological target: Disintegrin and metalloproteinase domain-containing protein 17 (Homo sapiens, UniProt P78536); assay: inhibition of ADAM17 substrate cleavage – biochemical, quenched FRET substrate, counter-screen for ADAM10 exosite inhibitor project, dose response (AID 743253)
Chain of Disintegrin and metalloproteinase domain-containing protein 17 (P78536 whole entry, the tested form may be a part): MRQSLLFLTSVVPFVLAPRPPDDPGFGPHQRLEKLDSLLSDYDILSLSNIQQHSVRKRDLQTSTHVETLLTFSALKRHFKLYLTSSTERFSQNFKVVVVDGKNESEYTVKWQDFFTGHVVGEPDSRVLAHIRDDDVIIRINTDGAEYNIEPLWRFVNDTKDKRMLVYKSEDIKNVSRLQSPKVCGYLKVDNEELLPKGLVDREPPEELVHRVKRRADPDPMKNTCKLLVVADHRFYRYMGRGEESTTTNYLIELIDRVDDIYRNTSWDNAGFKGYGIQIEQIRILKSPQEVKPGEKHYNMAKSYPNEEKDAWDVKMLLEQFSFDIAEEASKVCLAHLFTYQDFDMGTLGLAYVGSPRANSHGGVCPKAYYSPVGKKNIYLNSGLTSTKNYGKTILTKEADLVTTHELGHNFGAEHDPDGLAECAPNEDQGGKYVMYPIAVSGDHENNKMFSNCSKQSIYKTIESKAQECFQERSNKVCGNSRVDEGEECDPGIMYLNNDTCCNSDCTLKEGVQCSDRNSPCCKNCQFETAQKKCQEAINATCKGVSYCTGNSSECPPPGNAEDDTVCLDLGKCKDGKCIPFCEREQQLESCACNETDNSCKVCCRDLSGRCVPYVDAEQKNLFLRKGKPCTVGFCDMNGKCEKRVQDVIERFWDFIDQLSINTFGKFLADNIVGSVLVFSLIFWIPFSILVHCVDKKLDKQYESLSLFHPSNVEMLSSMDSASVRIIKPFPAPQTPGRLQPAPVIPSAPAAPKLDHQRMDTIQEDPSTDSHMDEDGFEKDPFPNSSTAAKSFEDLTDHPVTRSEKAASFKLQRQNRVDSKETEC

Transthyretin = Transthyretin (Homo sapiens, UniProt P02766); assay: Luminescence-based cell-based high throughput dose response assay to identify activators of Transthyretin (TTR) transcription.; type: functional
[3] = Counterscreen for inhibitors of Trypanosoma brucei methionyl tRNA synthetase (MetRS): Luminescence-based cell-based high throughput dose response assay to identify compounds that are cytotoxic to Jurkat human T lymphocyte cells.; type: functional
[4] = biological target: T2, Methionyl-tRNA synthetase, putative (Trypanosoma brucei brucei, UniProt Q38C91); type: functional, Trypanosoma brucei brucei strain 927/4 GUTat10.1
T2 sequence (Q38C91 whole entry): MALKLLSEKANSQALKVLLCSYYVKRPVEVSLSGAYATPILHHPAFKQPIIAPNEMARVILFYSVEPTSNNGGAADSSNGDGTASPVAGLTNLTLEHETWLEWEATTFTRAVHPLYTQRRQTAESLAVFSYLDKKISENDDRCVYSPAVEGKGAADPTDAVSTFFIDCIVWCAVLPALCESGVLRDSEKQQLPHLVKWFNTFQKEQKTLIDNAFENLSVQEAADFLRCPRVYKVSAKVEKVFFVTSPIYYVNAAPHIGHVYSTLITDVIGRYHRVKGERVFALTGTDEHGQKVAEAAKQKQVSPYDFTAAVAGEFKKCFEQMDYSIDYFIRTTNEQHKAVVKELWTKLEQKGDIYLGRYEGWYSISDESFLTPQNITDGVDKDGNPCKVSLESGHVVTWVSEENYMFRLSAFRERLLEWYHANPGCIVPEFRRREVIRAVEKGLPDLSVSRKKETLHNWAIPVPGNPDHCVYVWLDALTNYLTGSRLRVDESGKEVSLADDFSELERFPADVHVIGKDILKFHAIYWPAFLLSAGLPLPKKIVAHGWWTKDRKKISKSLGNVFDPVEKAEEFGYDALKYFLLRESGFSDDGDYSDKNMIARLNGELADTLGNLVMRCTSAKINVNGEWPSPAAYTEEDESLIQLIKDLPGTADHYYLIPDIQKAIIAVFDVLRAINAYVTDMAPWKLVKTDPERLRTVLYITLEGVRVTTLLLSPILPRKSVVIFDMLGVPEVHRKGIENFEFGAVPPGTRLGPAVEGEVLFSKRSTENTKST

[5] = Late stage counterscreen for inhibitors of Trypanosoma brucei methionyl tRNA synthetase (MetRS): Luminescence-based cell-based high throughput dose response assay to identify compounds that are cytotoxic to Jurkat human T lymphocyte cells.; type: functional
[6] = biological target: T2, Methionyl-tRNA synthetase, putative; type: functional, Trypanosoma brucei brucei strain 927/4 GUTat10.1; remark: listed apart in the source
[7] = biological target: Heat shock protein HSP 90-alpha (Homo sapiens, UniProt P07900); assay: Luminescence-based dose response biochemical high throughput screening assay for inhibitors of the Heat Shock Protein 90 (HSP90). [Related pubchem assays: 1831 (Summary AID.), 1846 (Confirmation screen.), 1789 (Primary screen.)]
[8] = biological target: T3, Corticotropin-releasing factor receptor 2/Corticotropin-releasing factor-binding protein (Homo sapiens, UniProt P24387+Q13324); assay: Dose Response confirmation of uHTS hits for small molecule antagonists of the CRF-binding protein and CRF-R2 receptor complex.; type: functional; settings: read-out: IC50_Mean
T3 sequence (Q13324 whole entry): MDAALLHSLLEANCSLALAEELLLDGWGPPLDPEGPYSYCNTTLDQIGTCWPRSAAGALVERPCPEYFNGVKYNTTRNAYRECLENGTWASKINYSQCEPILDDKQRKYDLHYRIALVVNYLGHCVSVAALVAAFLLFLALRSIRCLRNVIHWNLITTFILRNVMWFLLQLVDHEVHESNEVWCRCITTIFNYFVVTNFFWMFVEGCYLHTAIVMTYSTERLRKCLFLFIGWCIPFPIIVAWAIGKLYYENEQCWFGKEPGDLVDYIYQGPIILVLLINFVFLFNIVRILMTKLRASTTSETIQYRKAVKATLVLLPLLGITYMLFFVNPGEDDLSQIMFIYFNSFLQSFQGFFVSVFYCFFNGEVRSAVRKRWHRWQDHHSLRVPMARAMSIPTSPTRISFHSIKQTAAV
T3 sequence (P24387 whole entry): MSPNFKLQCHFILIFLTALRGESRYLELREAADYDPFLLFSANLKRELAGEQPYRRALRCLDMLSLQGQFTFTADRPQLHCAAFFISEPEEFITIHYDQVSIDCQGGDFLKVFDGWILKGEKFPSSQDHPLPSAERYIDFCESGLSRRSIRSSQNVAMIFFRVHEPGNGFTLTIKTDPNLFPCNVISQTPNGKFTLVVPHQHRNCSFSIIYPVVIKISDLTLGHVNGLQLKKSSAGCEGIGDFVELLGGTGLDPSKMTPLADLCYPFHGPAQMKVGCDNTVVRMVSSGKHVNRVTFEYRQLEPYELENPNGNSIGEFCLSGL

[9] = HEK293 Cytotoxicity Assay Measured in Cell-Based System Using Plate Reader - 7071-01_Inhibitor_Dose_CherryPick_Activity_Set2.; type: functional
Prothrombin = Prothrombin (Homo sapiens, UniProt P00734); assay: Thrombin 1536 HTS Dose Response Confirmation. [Related pubchem assays: 1046 (Thrombin 1536 HTS; hits were confirmed in this assay)]; type: functional
[10] = biological target: T3, Corticotropin-releasing factor receptor 2/Corticotropin-releasing factor-binding protein; assay: activators of CRF receptor 2 with binding protein – uHTS hits, confirmation (AID 602473); type: functional; settings: read-out: EC50_Mean
HEK293 = assay: viability loss in HEK293T cells – cell-based, ATP luminescence, cherry-pick samples, cytotoxicity control, dose response (AID 687005); type: functional; settings: Homo sapiens;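 further: cells exposed to compound for 48 hours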
Cytochrome P450 3A4 = Cytochrome P450 3A4 (Homo sapiens, UniProt P08684);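 further: CYP3A4 tested as one member of a cytochrome P450 panel screen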
Chain of Cytochrome P450 3A4 (P08684 whole entry): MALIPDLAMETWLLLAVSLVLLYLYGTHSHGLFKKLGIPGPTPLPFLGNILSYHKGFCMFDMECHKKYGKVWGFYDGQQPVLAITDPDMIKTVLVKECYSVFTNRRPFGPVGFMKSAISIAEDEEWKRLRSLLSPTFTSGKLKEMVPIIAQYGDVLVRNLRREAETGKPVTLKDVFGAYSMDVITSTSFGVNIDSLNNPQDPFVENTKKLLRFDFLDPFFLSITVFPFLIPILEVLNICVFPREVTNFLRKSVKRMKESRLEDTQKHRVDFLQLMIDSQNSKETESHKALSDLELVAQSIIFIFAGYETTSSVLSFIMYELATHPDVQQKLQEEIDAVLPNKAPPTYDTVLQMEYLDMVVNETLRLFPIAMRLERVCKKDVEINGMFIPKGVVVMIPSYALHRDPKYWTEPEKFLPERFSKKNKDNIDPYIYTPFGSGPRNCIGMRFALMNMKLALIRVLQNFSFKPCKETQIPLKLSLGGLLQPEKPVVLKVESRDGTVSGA

[11] = blockers of CRF-binding protein–CRF-R2 complex – cell-based, uHTS hits, 384-well, dose response (AID 651639); type: functional, Homo sapiens; settings: read-out: IC50_Mean
[12] = biological target: Aryl hydrocarbon receptor (Homo sapiens, UniProt P35869); assay: Luminescence-based cell-based high throughput dose response assay for activators of the Aryl Hydrocarbon Receptor (AHR). [Related pubchem assays: 2796 (Primary screen (AHR activators in singlicate)), 2845 (Confirmation screen (AHR activators in triplicate)), 434939 (Counterscreen (PXR activators in triplicate)), 2804 (Summary (AHR activators))]; type: ADME
Chain of Aryl hydrocarbon receptor (P35869 whole entry): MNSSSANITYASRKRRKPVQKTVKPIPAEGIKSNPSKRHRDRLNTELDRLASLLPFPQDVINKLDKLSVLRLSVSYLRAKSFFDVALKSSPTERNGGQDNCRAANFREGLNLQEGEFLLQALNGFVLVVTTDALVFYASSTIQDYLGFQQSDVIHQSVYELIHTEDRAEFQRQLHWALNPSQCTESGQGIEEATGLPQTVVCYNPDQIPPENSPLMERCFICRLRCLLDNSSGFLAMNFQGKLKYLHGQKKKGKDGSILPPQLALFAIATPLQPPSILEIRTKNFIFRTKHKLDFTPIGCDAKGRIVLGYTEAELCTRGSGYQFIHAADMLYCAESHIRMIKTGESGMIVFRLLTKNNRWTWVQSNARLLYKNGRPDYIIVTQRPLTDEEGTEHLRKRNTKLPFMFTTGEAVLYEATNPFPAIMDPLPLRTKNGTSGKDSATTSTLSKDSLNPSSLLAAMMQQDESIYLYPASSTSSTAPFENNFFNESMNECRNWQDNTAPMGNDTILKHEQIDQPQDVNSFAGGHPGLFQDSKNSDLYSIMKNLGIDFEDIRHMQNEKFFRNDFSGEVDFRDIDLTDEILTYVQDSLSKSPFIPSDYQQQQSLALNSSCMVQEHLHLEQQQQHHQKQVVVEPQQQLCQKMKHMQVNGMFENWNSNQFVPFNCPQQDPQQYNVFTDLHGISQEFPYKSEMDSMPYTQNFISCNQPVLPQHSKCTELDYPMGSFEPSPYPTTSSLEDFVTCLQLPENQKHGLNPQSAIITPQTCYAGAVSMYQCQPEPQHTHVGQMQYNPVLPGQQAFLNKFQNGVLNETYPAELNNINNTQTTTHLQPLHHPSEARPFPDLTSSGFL

[13] = biological target: T4, Microphthalmia-associated transcription factor (Homo sapiens, UniProt O75030); assay: reducers of TRPM1 reporter luminescence, concentration series – cell-based, SK-MEL-5, cherry-picked, set 3, MITF inhibitor project, dose response (AID 493073); type: functional;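 further: SK-MEL-5 melanoma cells with luciferase driven by the MITF target TRPM1 promoter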
T4 sequence (O75030 whole entry): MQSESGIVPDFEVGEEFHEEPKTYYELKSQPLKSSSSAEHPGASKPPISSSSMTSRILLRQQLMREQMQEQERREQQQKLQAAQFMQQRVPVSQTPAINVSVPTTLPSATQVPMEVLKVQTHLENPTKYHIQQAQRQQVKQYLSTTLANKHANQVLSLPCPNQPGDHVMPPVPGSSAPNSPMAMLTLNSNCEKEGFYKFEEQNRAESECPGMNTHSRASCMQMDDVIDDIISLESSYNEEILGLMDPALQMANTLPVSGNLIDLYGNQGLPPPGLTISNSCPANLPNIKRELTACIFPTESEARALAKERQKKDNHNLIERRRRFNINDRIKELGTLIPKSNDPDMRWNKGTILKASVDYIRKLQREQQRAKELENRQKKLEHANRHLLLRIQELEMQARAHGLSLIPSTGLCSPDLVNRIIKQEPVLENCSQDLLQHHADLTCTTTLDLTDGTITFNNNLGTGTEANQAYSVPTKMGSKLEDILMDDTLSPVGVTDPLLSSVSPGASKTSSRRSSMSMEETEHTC

[14] = A549 cell cytotoxicity, dose response, cytotoxicity control, plate reader, cherry-pick, antagonist series (AID 743412); type: functional, cell-based
[15] = viability loss in HEK293 cells – cell-based, plate reader, cherry-picked samples, cytotoxicity control, dose response (AID 743446); type: functional
[16] = blockers of bursicon-stimulated LGR2 cAMP reporter – cell-based, HEK293, CRE-luciferase reporter, cherry pick, set 2, dose response (AID 743343); type: functional;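 further: transfected cells were stimulated with diluted bursicon conditioned medium after compound addition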
[17] = toxicity toward HepG2 liver cells – cell-based, plate reader, cherry-pick, antagonist series, cytotoxicity control, dose response (AID 743416); type: functional
[18] = microbe, parasite or virus in culture; type: functional; settings: Mycobacterium tuberculosis
[19] = blockade of melanocortin 4 receptor signaling – cell-based, plate reader, cherry pick, counter-screen for LGR2 antagonist project, dose response (AID 743444); type: functional;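 further: transfected HEK 293 cells stimulated with alpha-MSH peptide; potency of inhibitors of the alpha-MSH evoked signal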

**Q.** Which EC50 (Streptokinase A) does the source give for `O=[N+]([O-])c1cccnc1N1CCC(c2cc(-c3ccc(Cl)cc3)[nH]n2)CC1` here?
**A.** 33.3 µM (active)

**Q.** What about the EC50 [1] of the same compound?
**A.** 5.14 µM (active)

**Q.** And the EC50 (Streptococcus)?
**A.** 9.6 µM (active)

**Q.** What about the IC50 [2] of the same compound?
**A.** > 69.5 µM (inactive)

**Q.** Which EC50 (Transthyretin) does the source give for `COc1ccc(-c2noc(-c3cccs3)n2)cc1OC` here?
**A.** > 167 µM (inactive)

**Q.** For `O=C(NCc1nc2ccccc2[nH]1)C1=C[C@@H](C2CC2)C[C@@H](OCc2ccc(CO)cc2)O1`, which IC50 [3] is on record?
**A.** 83.3 µM (inactive)

**Q.** What about the IC50 [4] of the same compound?
**A.** 1.62 µM (active)

**Q.** What about the IC50 [5] of the same compound?
**A.** > 83.3 µM (inactive)

**Q.** And the IC50 [6]?
**A.** 0.811 µM (active)

**Q.** For `Cc1ccc(C(=O)CSc2ccccc2C(=O)O)cc1`, which IC50 [7] is on record?
**A.** 10.8 µM (not active)

**Q.** For `Cc1ccccc1-n1ncc2c(SCC(=O)N3c4ccccc4CC3C)ncnc21` (stereo not given), which IC50 [8] is on record?
**A.** 11 µM (active)

**Q.** And the AC50 [9]?
**A.** 15.4 µM (active)

**Q.** And the IC50 (Prothrombin)?
**A.** > 50 µM (not active)

**Q.** And the EC50 [10]?
**A.** > 53 µM (inactive)

**Q.** What about the AC50 (HEK293) of the same compound?
**A.** 15.4 µM (active)

**Q.** What about the AC50 (Cytochrome P450 3A4) of the same compound?
**A.** inconclusive

**Q.** What about the IC50 [11] of the same compound?
**A.** 11.7 µM (active)

**Q.** For `[O-][n+]1onc2c3cc(-c4ccccc4)nnc3ccc21`, which EC50 [12] is on record?
**A.** 1.48 µM (active)

**Q.** With `CC1(C)CC(NC(=O)c2ccc(Cl)c(S(=O)(=O)N(Cc3ccccc3)c3ccccc3)c2)CC(C)(C)N1` as the compound, how does the AC50 [13] read?
**A.** 10.3 µM (active)

**Q.** What about the AC50 [14] of the same compound?
**A.** 7.96 µM (active)

**Q.** And the AC50 [15]?
**A.** 15.7 µM (active)

**Q.** And the AC50 [16]?
**A.** 19.4 µM (active)

**Q.** What about the AC50 [17] of the same compound?
**A.** 8.14 µM (active)

**Q.** What about the CC50 [18] of the same compound?
**A.** 12.7 µM (active)

**Q.** What about the AC50 [19] of the same compound?
**A.** 29.4 µM (active)
